From PMC3091354 (Journal of chromatography. B, Analytical technologies in …, 2011)
Where “and” joins values, the source holds several entries; their conditions need not be identical. Equal values may be shown once. Read-outs that look alike come from different tables or passages of the source.

What was measured:
[1] = assay type: in vivo; settings: mouse; for Tmax / MRT inf: male, C57BL/6N, ip
[2] = assay type: in vivo; settings: mouse; for concentration at 1 week: male, C57BL/6N, oral; for Concentration in brain: 1 week
[3] = Stability of 3-MoSA in mouse brain homogenate to freezing; assay type: physicochemical; settings: storage 7 months at −80°C
cells = settings: all cells tested; cited from earlier work
[4] = single i.p. 200 mg/kg, plasma, 200 mg/kg

Tmax ([1]; brain, 200 mg/kg): 15 min | MRT inf ([1]; heart, 200 mg/kg): 54 min | Tmax ([1]; heart, 200 mg/kg): 15 min | MRT inf ([1]; kidney, 200 mg/kg): 54 min | Tmax ([1]; kidney, 200 mg/kg): 30 min | MRT inf ([1]; liver, 200 mg/kg): 60 min | Tmax ([1]; liver, 200 mg/kg): 15 min | Tmax ([1]; plasma, 200 mg/kg): 30 min | MRT inf ([1]; spleen, 200 mg/kg): 60 min | Tmax ([1]; spleen, 200 mg/kg): 15 min | Time to distribution to heart, spleen, liver and kidneys after administration ([1]; single i.p. 200 mg/kg): 15 to 30 min | Time of maximum brain concentration (CBmax) ([1]; single i.p. 200 mg/kg, brain): 15 min | Cmax, brain ([1]; single i.p. 200 mg/kg, brain, 200 mg/kg): 1395 ± 207 µg/g and 1395.3 ± 207.0 µg/g | AUC (0-t), heart ([1]; single i.p. 200 mg/kg, heart): 546.7 ± 52.4 µg·h/g | AUC (0-t), kidney ([1]; single i.p. 200 mg/kg, kidney): 1981.6 ± 174.0 µg·h/g | Cmax, kidney ([1]; single i.p. 200 mg/kg, kidney): 1703.1 ± 146.1 µg/g | AUC (0-t), liver ([1]; single i.p. 200 mg/kg, liver): 540.4 ± 37.1 µg·h/g | Cmax, liver ([1]; single i.p. 200 mg/kg, liver): 880.4 ± 122.3 µg/g | AUC (0-t), plasma [1, 4]: 361.5 ± 41.6 µg·h/mL | CL/F (total body clearance) [1, 4]: 544.1 L/h/kg | Cmax, plasma [1, 4]: 342600 ± 56400 ng/mL | Elimination t1/2, plasma [1, 4]: 36 min | V/F (apparent volume of distribution, Vd/F) [1, 4]: 486.4 L/kg | AUC (0-t), spleen ([1]; single i.p. 200 mg/kg, spleen): 734.5 ± 60.7 µg·h/g | Time after injection up to which 3-MoSA was detectable in tissue ([1]; single i.p. 200 mg/kg, tissue): up to 4 h | concentration at 1 week ([2]; brain, 3 g/l, Concentration in brain, drink at 3 g/l): 18000 ng/g | concentration at 1 week ([2]; brain, 5 g/l, Concentration in brain, drink at 5 g/l): 25000 ng/g | concentration at 1 week ([2]; brain, 7 g/l, Concentration in brain, drink at 7 g/l): 38000 ng/g | concentration at 1 week ([2]; brain, 10 g/l, Concentration in brain, drink at 10 g/l): 82000 ng/g | concentration at 1 week ([2]; heart, 3 g/l, Concentration in heart, drink at 3 g/l): 23900 ± 6500 ng/g | concentration at 1 week ([2]; heart, 5 g/l, Concentration in heart, drink at 5 g/l): 46300 ± 6000 ng/g | concentration at 1 week ([2]; heart, 7 g/l, Concentration in heart, drink at 7 g/l): 53500 ± 8100 ng/g | concentration at 1 week ([2]; heart, 10 g/l, Concentration in heart, drink at 10 g/l): 60200 ± 8700 ng/g | concentration at 1 week ([2]; kidney, 3 g/l, Concentration in kidney, drink at 3 g/l): 91100 ± 16300 ng/g | concentration at 1 week ([2]; kidney, 5 g/l, Concentration in kidney, drink at 5 g/l): 155000 ± 20300 ng/g | concentration at 1 week ([2]; kidney, 7 g/l, Concentration in kidney, drink at 7 g/l): 210000 ± 13100 ng/g | concentration at 1 week ([2]; kidney, 10 g/l, Concentration in kidney, drink at 10 g/l): 212000 ± 17400 ng/g | concentration at 1 week ([2]; liver, 3 g/l, Concentration in liver, drink at 3 g/l): 74100 ± 11700 ng/g | concentration at 1 week ([2]; liver, 5 g/l, Concentration in liver, drink at 5 g/l): 204000 ± 22000 ng/g | concentration at 1 week ([2]; liver, 7 g/l, Concentration in liver, drink at 7 g/l): 252000 ± 24300 ng/g | concentration at 1 week ([2]; liver, 10 g/l, Concentration in liver, drink at 10 g/l): 259000 ± 26200 ng/g | concentration at 1 week ([2]; plasma, 3 g/l, Concentration in plasma, drink at 3 g/l): 4000 ± 1000 ng/mL | concentration at 1 week ([2]; plasma, 5 g/l, Concentration in plasma, drink at 5 g/l): 5400 ± 1100 ng/mL | concentration at 1 week ([2]; plasma, 7 g/l, Concentration in plasma, drink at 7 g/l): 10800 ± 1600 ng/mL | concentration at 1 week ([2]; plasma, 10 g/l, Concentration in plasma, drink at 10 g/l): 11500 ± 1200 ng/mL | concentration at 1 week ([2]; spleen, 3 g/l, Concentration in spleen, drink at 3 g/l): 46600 ± 7900 ng/g | concentration at 1 week ([2]; spleen, 5 g/l, Concentration in spleen, drink at 5 g/l): 82200 ± 7200 ng/g | concentration at 1 week ([2]; spleen, 7 g/l, Concentration in spleen, drink at 7 g/l): 185000 ± 11600 ng/g | concentration at 1 week ([2]; spleen, 10 g/l, Concentration in spleen, drink at 10 g/l): 192000 ± 23600 ng/g | Concentration in brain ([2]; drink at 3 g/l): 18.1 ± 4.4 µg of 3-MoSA/g of tissue | Concentration in brain ([2]; drink at 5 g/l): 24.7 ± 3.1 µg of 3-MoSA/g of tissue | Concentration in brain ([2]; drink at 7 g/l): 37.6 ± 0.8 µg of 3-MoSA/g of tissue | Concentration in brain ([2]; drink at 10 g/l): 82.3 ± 24.5 µg of 3-MoSA/g of tissue | Stability: fraction recovered after storage [3]: 77% and 76.87%
SMILES: COc1cccc(CN)c1O [3-MoSA, 3-methoxy-2-hydroxybenzylamine]
Drug accumulation over time in organs ([1]; single i.p. 200 mg/kg, organs studied): no evidence of specific drug accumulation over time | Cytotoxicity (cells): not cytotoxic
